Data set [1] deals with T1, human VPAC1 (Homo sapiens, UniProt P32241).
T1 construct: expressed in transfected cells
T1 sequence (P32241 31-457): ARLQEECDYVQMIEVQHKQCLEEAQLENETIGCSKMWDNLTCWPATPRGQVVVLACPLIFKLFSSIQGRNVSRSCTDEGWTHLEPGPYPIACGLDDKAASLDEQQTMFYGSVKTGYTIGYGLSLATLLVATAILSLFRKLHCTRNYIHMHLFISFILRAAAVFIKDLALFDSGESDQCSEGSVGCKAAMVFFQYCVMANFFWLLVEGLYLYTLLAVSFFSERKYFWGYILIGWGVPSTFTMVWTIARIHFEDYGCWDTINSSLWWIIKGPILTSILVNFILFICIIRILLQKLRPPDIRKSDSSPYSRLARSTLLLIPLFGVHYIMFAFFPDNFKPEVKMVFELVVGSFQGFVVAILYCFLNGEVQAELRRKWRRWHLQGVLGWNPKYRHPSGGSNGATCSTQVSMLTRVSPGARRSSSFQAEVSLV
The experiment in a line: Filter binding assay, 125I-labeled VIP tracer, VPAC1 membranes. The settings on record: read-out: Human VPAC1 Receptor Binding (IC50; nM).
Protocol: (§1) For this assay, the solutions and equipment include:
(§2) Presoak solution: 0.5% Polyethyleneamine in Aqua dest
(§3) Buffer for flushing filter plates: 25 mM HEPES pH 7.4
(§4) Blocking buffer: 25 mM HEPES pH 7.4; 0.2% protease free BSA
(§5) Assay buffer: 25 mM HEPES pH 7.4; 0.5% protease free BSA
(§6) Dilution and assay plate: PS-Microplate, U form
(§7) Filtration Plate: Multiscreen FB Opaque Plate; 1.0 μM Type B Glasfiber filter
(§8) In order to prepare the filter plates, the presoak solution is aspirated by vacuum filtration. The plates are flushed twice with 200 μL flush buffer. 200 μL blocking buffer is added to the filter plate. The filter plate is then incubated with 200 μL presoak solution for 1 hour at room temperature.
(§9) The assay plate is filled with 25 μL assay buffer, 25 μL membranes (2.5 μg) suspended in assay buffer, 25 μL compound (agonist) in assay buffer, and 25 μL tracer (about 40000 cpm) in assay buffer. The filled plate is incubated for 1 hour with shaking.
(§10) The transfer from assay plate to filter plate is conducted. The blocking buffer is aspirated by vacuum filtration and washed two times with flush buffer. 90 μL is transferred from the assay plate to the filter plate. The 90 μL transferred from assay plate is aspirated and washed three times with 200 μL flush buffer. The plastic support is removed. It is dried for 1 hour at 60° C. 30 μL Microscint is added. The count is performed.

The target of data set [2] is T2, human PAC1 (Homo sapiens, UniProt P41586).
T2 construct: expressed in transfected cells
T2 sequence (P41586 21-468): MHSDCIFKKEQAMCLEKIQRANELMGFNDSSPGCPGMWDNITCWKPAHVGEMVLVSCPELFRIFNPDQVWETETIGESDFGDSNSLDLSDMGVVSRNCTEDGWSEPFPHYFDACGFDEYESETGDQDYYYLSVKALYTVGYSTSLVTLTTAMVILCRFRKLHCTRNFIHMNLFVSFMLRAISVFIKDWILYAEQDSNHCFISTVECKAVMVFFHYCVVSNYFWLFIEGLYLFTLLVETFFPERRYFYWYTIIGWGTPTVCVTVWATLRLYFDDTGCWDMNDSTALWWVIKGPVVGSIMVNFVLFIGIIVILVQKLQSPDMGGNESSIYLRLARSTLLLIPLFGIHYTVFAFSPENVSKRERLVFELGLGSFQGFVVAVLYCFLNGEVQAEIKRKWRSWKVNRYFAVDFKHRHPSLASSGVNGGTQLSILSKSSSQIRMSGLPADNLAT
The experiment in a line: Filter binding assay, 125I-labeled PACAP-27 tracer, PAC1 membranes. The settings on record: read-out: Human PAC1 Receptor Binding (IC50; nM).
Protocol: as §1, §2, §3, §4, §5, §6, §7, §8, §9, §10

A short description of data set [3]: Rat serum stability (activity remaining, CHO-VPAC2 DiscoveRx read-out). The format is in vitro ADME. As for the experimental part:
The rat serum is stored at 4° C. until use and is used within two weeks. […] The aliquot is stored with aprotinin at 4° C. The aliquot is stored without aprotinin at 37° C. The aliquots are incubated overnight. […] The plate(s) are washed with cells twice in incubation buffer. The plates are allowed to hold 50 μL incubation media per well for 15 minutes. 50 μL solution per well is transferred to the cells from the plate prepared with 11 serial 5× dilutions of peptide for the 4° C. and 37° C. aliquot for each peptide studied, using the maximal concentrations that are indicated by the primary screen, in duplicate. This step dilutes the peptide concentration by a factor of two. The cells are incubated at room temperature for 30 minutes. […] The cells are incubated on the shaker (300 rpm) for 1 hour. Normal procedure with the DiscoveRx kit is followed. cAMP standards are included in column 12. EC50 values are determined from the cAMP assay data.

In data set [4] the target is T3, human VPAC2 (Homo sapiens, UniProt P41587).
T3 construct: expressed in transfected cells
T3 sequence (P41587 24-438): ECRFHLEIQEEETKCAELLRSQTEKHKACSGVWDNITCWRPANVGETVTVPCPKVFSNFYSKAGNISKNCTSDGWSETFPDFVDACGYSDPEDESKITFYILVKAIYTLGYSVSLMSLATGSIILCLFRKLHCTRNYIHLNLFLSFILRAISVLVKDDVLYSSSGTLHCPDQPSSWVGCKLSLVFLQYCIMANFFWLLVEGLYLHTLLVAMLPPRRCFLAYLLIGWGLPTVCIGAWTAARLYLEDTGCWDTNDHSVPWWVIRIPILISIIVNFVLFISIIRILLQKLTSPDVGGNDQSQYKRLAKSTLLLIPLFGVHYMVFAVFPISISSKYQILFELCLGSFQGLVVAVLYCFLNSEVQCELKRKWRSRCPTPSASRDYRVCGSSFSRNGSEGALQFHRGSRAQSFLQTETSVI
The experiment in a line: Alpha screen cAMP assay, in vitro potency at human VPAC2 receptor. The format is cell-based. The settings on record: cAMP generation; single result from two analyses in a single run, some values average of more than one experiment. (In general: Cyclic AMP is a second messenger, typically raised through Gs and lowered through Gi signalling.)

Like-named read-outs stand apart in the source and are kept apart here. Square brackets hold non-standard residues; d marks the D form. Ends that are not written are not given here. Peptide text beside a SMILES is read from it. * marks the point of attachment. hArg = N=C(N)NCCCC[C@H](N)C(=O)O; Orn = NCCC[C@H](N)C(=O)O; Hexanoyl = CCCCCC(=O)*; Aib = CC(C)(N)C(=O)O

As usually defined, the IC50 is the point on the concentration scale where inhibition reaches its midpoint. Take `CCCCCC(=O)N[C@@H](Cc1c[nH]cn1)C(=O)N[C@@H](CO)C(=O)N[C@@H](CC(=O)O)C(=O)N[C@@H](C)C(=O)N[C@H](C(=O)N[C@@H](Cc1ccccc1)C(=O)N[C@H](C(=O)N[C@@H](CC(=O)O)C(=O)N[C@@H](CC(N)=O)C(=O)N[C@@H](Cc1ccc(O)cc1)C(=O)N[C@H](C(=O)N[C@@H](Cc1ccccc1)C(=O)N[C@@H](CC(C)C)C(=O)N[C@@H](CCCNC(=N)N)C(=O)NC(C)(C)C(=O)N[C@@H](CCC(N)=O)C(=O)N[C@H](C(=O)N[C@@H](C)C(=O)N[C@@H](C)C(=O)NC(C)(C)C(=O)N[C@@H](CCCCN)C(=O)N[C@@H](Cc1ccc(O)cc1)C(=O)N[C@@H](CC(C)C)C(=O)N[C@@H](CCC(N)=O)C(=O)N[C@@H](CO)C(=O)N[C@H](C(=O)N[C@@H](CCCN)C(=O)N[C@@H](CC(N)=O)C(=O)N[C@@H](CCCN)C(=O)NCC(=O)NCC(=O)N1CCC[C@H]1C(=O)N[C@@H](CO)C(=O)N[C@@H](CO)C(=O)NCC(=O)N[C@@H](C)C(=O)N1CCC[C@H]1C(=O)N1CCC[C@H]1C(=O)N1CCC[C@H]1C(=O)N[C@@H](CO)C(=O)O)[C@@H](C)CC)C(C)C)[C@@H](C)O)[C@@H](C)O)C(C)C` [Agonist P369] (Hexanoyl-HSDAVFTDNYTFLR[Aib]QVAA[Aib]KYLQSI[Orn]N[Orn]GGPSSGAPPPS-OH; C-terminus assumed): the IC50 in data set [1] is > 3000 nM; in data set [2], > 25000 nM. Besides, the “Rat Serum Stability (estimated purity in % after overnight incub.)” value in data set [3] is reported as 133.76%.
Broadly, the EC50 is the concentration needed to bring the measured effect to its halfway point. In turn, `CCCCCC(=O)N[C@@H](Cc1c[nH]cn1)C(=O)N[C@@H](CO)C(=O)N[C@@H](CC(=O)O)C(=O)N[C@@H](C)C(=O)N[C@H](C(=O)N[C@@H](Cc1ccccc1)C(=O)N[C@H](C(=O)N[C@@H](CC(=O)O)C(=O)N[C@@H](CC(N)=O)C(=O)N[C@@H](Cc1ccc(O)cc1)C(=O)N[C@H](C(=O)N[C@@H](CCCN)C(=O)N[C@@H](CC(C)C)C(=O)N[C@@H](CC(C)C)C(=O)N[C@@H](C)C(=O)N[C@@H](CCCCN)C(=O)N[C@@H](CC(C)C)C(=O)N[C@@H](C)C(=O)N[C@@H](CC(C)C)C(=O)N[C@@H](CCC(N)=O)C(=O)N[C@@H](CCCCN)C(=O)N[C@@H](Cc1ccc(O)cc1)C(=O)N[C@@H](CC(C)C)C(=O)N[C@@H](CCC(N)=O)C(=O)N[C@@H](CO)C(=O)N[C@H](C(=O)N[C@@H](CCCN)C(=O)N[C@@H](CC(N)=O)C(=O)N[C@@H](CCCN)C(=O)NCC(=O)NCC(=O)N1CCC[C@H]1C(=O)N[C@@H](CO)C(=O)N[C@@H](CO)C(=O)NCC(=O)N[C@@H](C)C(=O)N1CCC[C@H]1C(=O)N1CCC[C@H]1C(=O)N1CCC[C@H]1C(=O)N[C@@H](CO)C(=O)O)[C@@H](C)CC)[C@@H](C)O)[C@@H](C)O)C(C)C` [Agonist P371] (Hexanoyl-HSDAVFTDNYT[Orn]LLAKLALQKYLQSI[Orn]N[Orn]GGPSSGAPPPS-OH; C-terminus assumed) registered a concentration giving a half-maximal response (EC50) in data set [4] of 0.13 nM. For the same compound, in data set [2], the IC50 is > 25000 nM.
Consider `CCCCCC(=O)N[C@@H](Cc1c[nH]cn1)C(=O)N[C@@H](CO)C(=O)N[C@@H](CC(=O)O)C(=O)N[C@@H](C)C(=O)N[C@H](C(=O)N[C@@H](Cc1ccccc1)C(=O)N[C@H](C(=O)N[C@@H](CC(=O)O)C(=O)N[C@@H](CC(N)=O)C(=O)N[C@@H](Cc1ccc(O)cc1)C(=O)N[C@H](C(=O)N[C@@H](CCCN)C(=O)N[C@@H](CC(C)C)C(=O)N[C@@H](CCCNC(=N)N)C(=O)NC(C)(C)C(=O)N[C@@H](CCC(N)=O)C(=O)N[C@H](C(=O)N[C@@H](C)C(=O)N[C@@H](C)C(=O)NC(C)(C)C(=O)N[C@@H](CCCCN)C(=O)N[C@@H](Cc1ccc(O)cc1)C(=O)N[C@@H](CC(C)C)C(=O)N[C@@H](CCC(N)=O)C(=O)N[C@@H](CO)C(=O)N[C@@H](CO)C(=O)N[C@@H](CCCN)C(=O)N[C@@H](CC(N)=O)C(=O)N[C@@H](CCCN)C(=O)NCC(=O)NCC(=O)N1CCC[C@H]1C(=O)N[C@@H](CO)C(=O)N[C@@H](CO)C(=O)NCC(=O)N[C@@H](C)C(=O)N1CCC[C@H]1C(=O)N1CCC[C@H]1C(=O)N1CCC[C@H]1C(=O)N[C@@H](CO)C(=O)O)C(C)C)[C@@H](C)O)[C@@H](C)O)C(C)C` [Agonist P382] (Hexanoyl-HSDAVFTDNYT[Orn]LR[Aib]QVAA[Aib]KYLQSS[Orn]N[Orn]GGPSSGAPPPS-OH; C-terminus assumed), for which the IC50 was > 3000 nM in data set [1] and > 25000 nM in data set [2]. Also, the “Rat Serum Stability (estimated purity in % after overnight incub.)” value in data set [3] is 92.34%.
For `CCCCCC(=O)N[C@@H](Cc1c[nH]cn1)C(=O)N[C@@H](CO)C(=O)N[C@@H](CC(=O)O)C(=O)N[C@@H](C)C(=O)N[C@H](C(=O)N[C@@H](Cc1ccccc1)C(=O)N[C@H](C(=O)N[C@@H](CC(=O)O)C(=O)N[C@@H](CC(N)=O)C(=O)N[C@@H](Cc1ccc(O)cc1)C(=O)N[C@H](C(=O)N[C@@H](CCCN)C(=O)N[C@@H](CC(C)C)C(=O)N[C@@H](CCCNC(=N)N)C(=O)NC(C)(C)C(=O)N[C@@H](CCC(N)=O)C(=O)N[C@H](C(=O)N[C@@H](C)C(=O)N[C@@H](CO)C(=O)NC(C)(C)C(=O)N[C@@H](CCCCN)C(=O)N[C@@H](Cc1ccc(O)cc1)C(=O)N[C@@H](CC(C)C)C(=O)N[C@@H](CCC(N)=O)C(=O)N[C@@H](CO)C(=O)N[C@H](C(=O)N[C@@H](CCCN)C(=O)N[C@@H](CC(N)=O)C(=O)N[C@@H](CCCN)C(=O)NCC(=O)NCC(=O)N1CCC[C@H]1C(=O)N[C@@H](CO)C(=O)N[C@@H](CO)C(=O)NCC(=O)N[C@@H](C)C(=O)N1CCC[C@H]1C(=O)N1CCC[C@H]1C(=O)N1CCC[C@H]1C(=O)N[C@@H](CO)C(=O)O)[C@@H](C)CC)C(C)C)[C@@H](C)O)[C@@H](C)O)C(C)C` [Agonist P387] (Hexanoyl-HSDAVFTDNYT[Orn]LR[Aib]QVAS[Aib]KYLQSI[Orn]N[Orn]GGPSSGAPPPS-OH; C-terminus assumed), the IC50 in data set [1] is > 3000 nM; in data set [2] it was > 25000 nM. Also, in data set [3], the “Rat Serum Stability (estimated purity in % after overnight incub.)” value was 74.99%.
As for `CCCCCC(=O)N[C@@H](Cc1c[nH]cn1)C(=O)N[C@@H](CO)C(=O)N[C@@H](CC(=O)O)C(=O)N[C@@H](C)C(=O)N[C@H](C(=O)N[C@@H](Cc1ccccc1)C(=O)N[C@H](C(=O)N[C@@H](CCC(=O)O)C(=O)N[C@@H](CCC(N)=O)C(=O)N[C@@H](Cc1ccc(OC)cc1)C(=O)N[C@H](C(=O)N[C@@H](CCCN)C(=O)N[C@@H](CC(C)C)C(=O)N[C@@H](CCCNC(=N)N)C(=O)NC(C)(C)C(=O)N[C@@H](CCC(N)=O)C(=O)N[C@@H](CC(C)C)C(=O)N[C@@H](C)C(=O)N[C@@H](C)C(=O)NC(C)(C)C(=O)N[C@@H](CCCN)C(=O)N[C@@H](Cc1ccc(OC)cc1)C(=O)N[C@@H](CC(C)C)C(=O)N[C@@H](CCC(N)=O)C(=O)N[C@@H](CO)C(=O)N[C@H](C(=O)N[C@@H](CCCN)C(=O)N[C@@H](CCCN)C(=O)NCC(=O)NCC(=O)N1CCC[C@H]1C(=O)N[C@@H](CO)C(=O)N[C@@H](CO)C(=O)NCC(=O)N[C@@H](C)C(=O)N1CCC[C@H]1C(=O)N1CCC[C@H]1C(=O)N1CCC[C@H]1C(=O)N[C@@H](CO)C(=O)O)[C@@H](C)CC)[C@@H](C)O)[C@@H](C)O)C(C)C` [Agonist P418] (Hexanoyl-HSDAVFTEQY(Me)T[Orn]LR[Aib]QLAA[Aib][Orn]Y(Me)LQSI[Orn][Orn]GGPSSGAPPPS-OH; C-terminus assumed), the 50% inhibitory concentration (IC50) in data set [1] was > 3000 nM; in data set [2], > 25000 nM. Also, the “Rat Serum Stability (estimated purity in % after overnight incub.)” value in data set [3] is recorded as 99.96%.
As for “Hexanoyl-HSDAVFTDNYT[hArg]LR[Aib]QVAA[Aib]KYLQSIKNKRYGGPSSGAPPPS [Agonist P343]”, the IC50 in data set [1] was > 3000 nM; in data set [2] it was > 25000 nM. Besides, in data set [3] (10 μM peptide in rat serum, overnight at 37° C. vs 4° C. with aprotinin, estimated by EC50, 4C/EC50, 37C), the “Rat Serum Stability (estimated purity in % after overnight incub.)” value is 34.46%.
